The NIST ThermoML archive (doi:10.1016/j.tca.2013.06.022)
± gives the expanded uncertainty stated by the source.

Conditions: for Normal melting temperature: Crystal

| Normal melting temperature (visual observation) [°C] | Glass transition temperature (DTA) [°C] | Normal melting temperature (DTA) [°C] | Structure (SMILES) |
| --- | --- | --- | --- |
| 97.00 ± 5 | 35.00 ± 5 | 93.00 ± 5 | CCCC[n+]1cccc(C)c1.[Cl-] [1-butyl-3-methylpyridinium chloride] |
| 77.00 ± 5 |  | 62.00 ± 5 | CCCCCC[n+]1cccc(C)c1.[Cl-] [1-hexyl-3-methylpyridinium chloride] |
| 92.00 ± 5 | 21.50 ± 5 |  | CCCCC[n+]1cccc(C)c1.[Cl-] [1-pentyl-3-methylpyridinium chloride] |
| 92.00 ± 5 | 18.50 ± 5 |  | CCC[n+]1cccc(C)c1.[Cl-] [1-propyl-3-methylpyridinium chloride] |

The remaining lines, values behind:

| Structure (SMILES) | Normal melting temperature (visual observation) [°C] | Glass transition temperature (DTA) [°C] | Normal melting temperature (DTA) [°C] |
| --- | --- | --- | --- |
| C=CC[n+]1cccc(C)c1.[Cl-] [1-allyl-3-methylpyridinium chloride] | 108.00 ± 5 | 27.50 ± 5 |  |
| CCCCCCCCCC[n+]1cccc(C)c1.[Cl-] [1-decyl-3-methylpyridinium chloride] | 64.00 ± 5 |  | 55.00 ± 5 |
| CC[n+]1cccc(C)c1.[Br-] [1-ethyl-3-methylpyridinium bromide] | 163.00 ± 5 |  | 146.00 ± 5 |
| CC[n+]1cccc(C)c1.[Cl-] [1-ethyl-3-methylpyridinium chloride] | 130.00 ± 5 | 29.00 ± 5 |  |
| CCCCCCC[n+]1cccc(C)c1.[Cl-] [1-heptyl-3-methylpyridinium chloride] | 72.00 ± 5 | 16.50 ± 5 |  |
| CCCCCCCCC[n+]1cccc(C)c1.[Cl-] [1-nonyl-3-methylpyridinium chloride] | 64.00 ± 5 |  |  |
| CCCCCCCC[n+]1cccc(C)c1.[Cl-] [1-octyl-3-methylpyridinium chloride] | 74.00 ± 5 |  | 69.00 ± 5 |
